From ChEMBL document CHEMBL1772971, “Novel 18F-labeled benzofuran derivatives with improved properties for positron emission tomography (PET) imaging of β-amyloid plaques in Alzheimer's brains” (J Med Chem, 2011)
Values belong to the compound of their own block, whether it stands above or below them. Active and inactive are the calls of the source. The rule behind the calls is not given here.

Key:
Brain [1] = assay: Ratio of drug level in brain after 2 mins to brain after 60 mins in ddY mouse […] at 185 to 370 kBq, iv; format: ADME, organism-based; conditions: in vivo
[2] = Displacement of [125I]IMPY from amyloid beta (1 to 42) after 3 hrs by gamma counting
Blood [3] = assay: Biodistribution in ddY mouse blood at 185 to 370 kBq, iv after 30 mins by gamma counting; format: ADME, organism-based; conditions: in vivo, 0.5 h
Bone [4] = assay: Biodistribution in ddY mouse bone at 185 to 370 kBq, iv after 2 mins by gamma counting; format: ADME, organism-based, Bone element; conditions: in vivo
Brain [5] = assay: Biodistribution in ddY mouse brain at 185 to 370 kBq, iv after 2 mins by gamma counting; format: ADME, organism-based; conditions: in vivo
Bone [6] = assay: Biodistribution in ddY mouse bone at 185 to 370 kBq, iv after 60 mins by gamma counting; format: ADME, organism-based, Bone element; conditions: in vivo, 1 h
Brain [7] = assay: Biodistribution in ddY mouse brain at 185 to 370 kBq, iv after 60 mins by gamma counting; format: ADME, organism-based; conditions: in vivo, 1 h
Blood [8] = assay: Biodistribution in ddY mouse blood at 185 to 370 kBq, iv after 60 mins by gamma counting; format: ADME, organism-based; conditions: in vivo, 1 h
Bone [9] = assay: Biodistribution in ddY mouse bone at 185 to 370 kBq, iv after 10 mins by gamma counting; format: ADME, organism-based, Bone element; conditions: in vivo
Blood [10] = assay: Biodistribution in ddY mouse blood at 185 to 370 kBq, iv after 10 mins by gamma counting; format: ADME, organism-based; conditions: in vivo
Blood [11] = assay: Biodistribution in ddY mouse blood at 185 to 370 kBq, iv after 2 mins by gamma counting; format: ADME, organism-based; conditions: in vivo
Bone [12] = assay: Biodistribution in ddY mouse bone at 185 to 370 kBq, iv after 30 mins by gamma counting; format: ADME, organism-based, Bone element; conditions: in vivo, 0.5 h
Brain [13] = assay: Biodistribution in ddY mouse brain at 185 to 370 kBq, iv after 30 mins by gamma counting; format: ADME, organism-based; conditions: in vivo, 0.5 h
Brain [14] = assay: Biodistribution in ddY mouse brain at 185 to 370 kBq, iv after 10 mins by gamma counting; format: ADME, organism-based; conditions: in vivo
[15] = molecular target: Amyloid-beta precursor protein (Homo sapiens) (UniProt P05067); assay: Binding affinity to beta amyloid plaques in human Alzheimer's disease brain at 444 kBq/50 uL after 1 hr by autoradiography; conditions: tested as the 18F-labelled form
Amyloid-beta precursor protein (Homo sapiens), sequence (P05067 whole entry): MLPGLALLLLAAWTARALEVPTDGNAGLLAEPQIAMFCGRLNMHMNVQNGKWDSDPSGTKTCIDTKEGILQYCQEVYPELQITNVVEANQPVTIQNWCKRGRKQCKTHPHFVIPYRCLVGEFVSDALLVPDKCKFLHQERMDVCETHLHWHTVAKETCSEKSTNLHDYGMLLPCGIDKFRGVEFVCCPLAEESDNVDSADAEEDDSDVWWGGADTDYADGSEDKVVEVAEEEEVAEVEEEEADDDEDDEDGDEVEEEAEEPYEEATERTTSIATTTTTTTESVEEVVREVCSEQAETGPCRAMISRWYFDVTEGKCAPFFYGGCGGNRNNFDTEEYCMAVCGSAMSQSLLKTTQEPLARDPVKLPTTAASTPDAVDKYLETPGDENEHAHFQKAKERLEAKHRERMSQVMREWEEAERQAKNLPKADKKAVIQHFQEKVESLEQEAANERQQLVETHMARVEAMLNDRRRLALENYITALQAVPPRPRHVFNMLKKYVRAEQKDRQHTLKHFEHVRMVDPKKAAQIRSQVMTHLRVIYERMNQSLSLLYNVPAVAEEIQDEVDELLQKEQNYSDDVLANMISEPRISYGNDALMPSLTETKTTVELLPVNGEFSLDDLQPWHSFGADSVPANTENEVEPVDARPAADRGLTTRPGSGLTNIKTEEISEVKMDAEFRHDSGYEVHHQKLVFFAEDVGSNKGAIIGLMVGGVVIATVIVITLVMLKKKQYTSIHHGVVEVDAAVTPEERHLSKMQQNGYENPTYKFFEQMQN

Ratio (Brain [1]): 3.8
SMILES: CNc1ccc(/C=C/c2ccc(OCCOCCOCC[18F])nc2)cc1 [FLORBETAPIR F 18]

Ki [2]: 9 nM
SMILES: CNc1ccc(-c2nc3ccc(O)cc3s2)cc1 [PITTSBURGH COMPOUND B UNLABELLED]

Ratio (Brain [1]): 2.11
SMILES: CN(C)c1ccc(-c2cc3cc(OCCOCCOCC[18F])ccc3o2)cn1

Ki [2]: 0.95 nM
SMILES: CN(C)c1ccc(-c2cc3cc(OCCOCCOCCF)ccc3o2)cn1

Drug uptake (Blood [3]): 2.68 % ID/g
Drug uptake (Bone [4]): 1.19 % ID/g
Drug uptake (Brain [5]): 2.88 % ID/g
Ratio (Brain [1]): 1.02
Drug uptake (Bone [6]): 2.74 % ID/g
Drug uptake (Brain [7]): 2.8 % ID/g
Drug uptake (Blood [8]): 3.41 % ID/g
Drug uptake (Bone [9]): 1.76 % ID/g
Drug uptake (Blood [10]): 2.48 % ID/g
Drug uptake (Blood [11]): 1.64 % ID/g
Drug uptake (Bone [12]): 3.63 % ID/g
Drug uptake (Brain [13]): 3.14 % ID/g
Drug uptake (Brain [14]): 5.66 % ID/g
SMILES: CN(C)c1ccc(-c2cc3cc(OCCOCCOCC[18F])ccc3o2)cc1

Ki [2]: 2.41 nM
Activity [15]: Active
SMILES: CNc1ccc(-c2cc3cc(OCCOCCOCCF)ccc3o2)cn1
